# Measurements published in PMC10582583, “The novel cyclophilin inhibitor C105SR reduces hepatic ischaemia–reperfusion injury via mitoprotection” (JHEP Reports, 2023).
# Where two headings read alike, the source gives them in different places.
# Tests used:
# [1] = test system: hepatic ischaemia-reperfusion injury in C57BL/6J mice; experiment: Mouse model of hepatic ischaemia-reperfusion injury; type: in vivo; conditions: 50 mg/kg osmotic pump, 1 h ischaemia, 6 h reperfusion
# Protocol: Mice (10–12 weeks-old) were anesthetised with isoflurane and subcutaneously implanted with Alzet® osmotic pump containing C105SR (50 mg/kg) or vehicle 24 h before the surgical procedure. The mice were anesthetised with isoflurane and subjected to partial hepatic ischaemia by clamping the hepatic artery and portal vein for 60 min, followed by 6 h of reperfusion induced by removal of the clamp. The sham-operated group underwent laparotomy without vascular occlusion.
# Briefly, 70% of the liver was subjected to 1 h of ischaemia followed by 6 h of reperfusion, as recently described.[16] C105SR was administered using osmotic pumps at a dose of 50 mg/kg.
# Mouse serum analysis. Blood was collected at 6 h of reperfusion. Alanine aminotransferase (ALT) and aspartate aminotransferase (AST) activities were measured on an automated analyzer in the Biochemistry Department of Henri Mondor Hospital.
# Histological Analysis. Hematoxylin and eosin staining was performed on 4-μm thick formalin-fixed paraffin-embedded tissue sections. Slides were scanned at x20 magnification using a virtual slide scanning system (Axio scan7/ZEN slidescan). Necrosis areas were quantified with […]
# TUNEL Assay. Terminal deoxynucleotidyl-transferase (TdT) dUTP Nick-End Labeling (TUNEL) was performed on formalin-fixed paraffin-embedded tissue sections using a commercial kit (Abcam, Cambridge, United Kingdom) following the manufacturer’s instructions. The number of TUNEL-positive cells were quantified using QuPath on slides scanned at x20 magnification using a virtual slide scanning system (Axio scan7/ZEN slidescan).
# Caspase 3/7 activity assay. Caspase 3/7 activity was assessed using the commercially Caspase-Glo® 3/7 assay (Promega, Madison, Wisconsin) following the manufacturer’s instructions.
# Briefly, Caspase-Glo® 3/7 Reagent was incubated with the cells and the caspase3/7 activity was determined by measuring luminescence with a luminometer (Berthold). Caspase3/7 activity was expressed as a percentage of the untreated control.
# In silico modeling and docking. […]
# [2] = Plasmatic and hepatic concentration of C105SR in mice; type: in vivo; conditions: sc, mouse, 50 mg/kg by subcutaneous osmotic pump
# Protocol: Briefly, 70% of the liver was subjected to 1 h of ischaemia followed by 6 h of reperfusion, as recently described.[16] C105SR was administered using osmotic pumps at a dose of 50 mg/kg. […]
# simulation was performed using @TOME‐2 server with no constraint. The images were generated using PyMOL and MarvinSketch.
# Determination of plasmatic and hepatic concentration of C105SR. Mice (10-12 weeks-old, n=6) were anesthetized with isoflurane and subcutaneously implanted with Alzet® osmotic pump containing C105SR (50 mg/kg) or vehicle. 24h after, the blood and the liver were collected. C105SR in plasma and liver homogenates was extracted with cold acetonitrile containing 0.1% of acetic acid and centrifugation at 13,000 x g for 10 min at 4 °C. C105SR dosage was carried out by tandem mass spectrometric detection with a TSQ QUANTIS® mass spectrometer (ThermoFisher Scientific, Villebon-sur-Yvette, France), with an electrospray ionization source (ESI) which was set in positive electro-spray ionization (ESI+). The acquired data were processed using Trace Finder® software version 4.1 (Thermo Fisher Scientific, Villebon-sur-Yvette, France). Optimization of the MS conditions has been performed by single direct infusion of reference standards of the analyte. Two […]
compound,measurement,setting,value
"COc1ccc(Br)cc1[C@H](NC(=O)NCc1ccc2c(c1)CCCN2)C(=O)N1CCC[C@@H]1c1cccc2ccsc12 [Compound C105SR, 1-((S)-2-((R)-2-(benzo[b]thiophen-7-yl)pyrrolidin-1-yl)-1-(5-bromo-2-methoxyphenyl)-2-oxoethyl)-3-((1,2,3,4-tetrahydroquinolin-6-yl)methyl)urea]",hepatocyte necrosis (histology),[1],significantly protected
same,serum ALT and AST levels,[1],significantly protected
same,number of TUNEL-positive apoptotic cells,[1]; vs vehicle,significantly reduced
same,concentration at 24 h,"[2]; liver, read-out: hepatic concentration",~30 nM
same,concentration at 24 h,"[2]; plasma, read-out: plasmatic concentration",~30 nM
